Experimental findings from PubChem BioAssay (NCI) are described below.

Test systems include CCRF-CEM leukemia; HCT-116 colon; HCT-15 colon; KM12 colon; MALME-3M melanoma; NCI-H522 lung; PC-3 prostate; RXF 393 renal; SF-539 CNS; SK-MEL-2 melanoma.
Holding throughout (assay): DTP human tumour cell line panel, 48 h

Molecules are shown by their SMILES.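 Dose response: 5 concentrations. Exposure: 48 h. Format: 96-well plates. Endpoint: linear interpolation; highest concentration if not reached. The concentration for 50% growth inhibition is given as GI50. The concentration for full growth arrest is given as TGI.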

`O=c1[nH]c(=O)n(CCOc2ccccc2)cc1Nc1ccccc1`: the TGI with CCRF-CEM leukemia, in the assay with HCT-116 colon, in the assay on HCT-15 colon, in the assay with KM12 colon, in the assay on MALME-3M melanoma and in the assay with NCI-H522 lung was > 100 µM each time. The concentration for total growth inhibition (TGI) in the assay with PC-3 prostate and in the assay on RXF 393 renal was > 100 µM throughout.
For the compound `C[C@]12CC[C@H](OC(=O)Cc3ccc(N(CCCl)CCCl)cc3)CC1=CC[C@@H]1[C@@H]2CC[C@]2(C)C(=O)CC[C@@H]12`, the TGI in the assay with HCT-15 colon, in the assay on KM12 colon, in the assay on MALME-3M melanoma, with NCI-H522 lung, in the assay with PC-3 prostate and in the assay with RXF 393 renal was > 100 µM in each case. Further, the TGI with SF-539 CNS and in the assay with SK-MEL-2 melanoma was > 100 µM throughout.
As for `NCCCCC(NC(=O)C(N)Cc1ccc(O)cn1)C(=O)O` (configuration not stated), the TGI in the assay on CCRF-CEM leukemia, in the assay on HCT-116 colon, with HCT-15 colon, in the assay on KM12 colon, in the assay on MALME-3M melanoma and with NCI-H522 lung was > 100 µM each time. Further, the total growth inhibition concentration (TGI) in the assay with PC-3 prostate, with RXF 393 renal and with SF-539 CNS was > 100 µM throughout.
Regarding `OCCCNc1nc(=S)[nH]c2[nH]ncc12`, the GI50 in the assay with CCRF-CEM leukemia is 34.7 µM; with HCT-15 colon, 81.9 µM; in the assay on KM12 colon it was 38.1 µM; in the assay on MALME-3M melanoma, 48.3 µM; in the assay with NCI-H522 lung, 26.1 µM; in the assay on PC-3 prostate it was 70.2 µM. For the same compound, the figures for the GI50 in the assay on RXF 393 renal, with SF-539 CNS and in the assay on SK-MEL-2 melanoma were 44.3 µM, 23.3 µM and 53.2 µM, respectively. Further, the concentration for total growth inhibition (TGI) in the assay with CCRF-CEM leukemia, in the assay with HCT-15 colon, with KM12 colon, in the assay with MALME-3M melanoma, with NCI-H522 lung and in the assay on PC-3 prostate was > 100 µM in each case. For the same compound, the total growth inhibition concentration (TGI) in the assay with RXF 393 renal, with SF-539 CNS and with SK-MEL-2 melanoma was > 100 µM throughout.
Consider `c1ccc2c(c1)CC1=C(O2)c2ccccc2OC1`, for which the total growth inhibition concentration (TGI) is > 100 µM in the assay on CCRF-CEM leukemia; 30.6 µM with HCT-116 colon; 72.6 µM with HCT-15 colon; > 100 µM in the assay with KM12 colon; > 100 µM in the assay with MALME-3M melanoma; 44.5 µM in the assay with NCI-H522 lung. Besides, the TGI was > 100 µM in the assay on PC-3 prostate, 71.6 µM with SF-539 CNS and 70.3 µM in the assay with SK-MEL-2 melanoma.
Consider `CCOC(=O)CCCNC(=O)CCCCC(=O)N(C)C`, for which the TGI in the assay with CCRF-CEM leukemia, with HCT-116 colon, in the assay with HCT-15 colon, with KM12 colon, with MALME-3M melanoma and in the assay with NCI-H522 lung was > 100 µM throughout. The TGI in the assay on PC-3 prostate, in the assay on SF-539 CNS and with SK-MEL-2 melanoma was > 100 µM each time.
`O=C1CN(C(=O)C2CCCN2C(=O)C2CCCN2)C(=O)CN1` (configuration not stated): the TGI with CCRF-CEM leukemia, in the assay on HCT-116 colon, with HCT-15 colon, with KM12 colon, in the assay with MALME-3M melanoma and in the assay with NCI-H522 lung was > 100 µM each time. Besides, the TGI in the assay with PC-3 prostate and in the assay on RXF 393 renal was > 100 µM each time.
Take `N#CC12CNCC1CN=N2` (configuration not stated): the concentration for total growth inhibition (TGI) with CCRF-CEM leukemia, in the assay on HCT-116 colon, in the assay with HCT-15 colon, with KM12 colon, with MALME-3M melanoma and with NCI-H522 lung was > 100 µM throughout. The TGI in the assay on PC-3 prostate, in the assay on RXF 393 renal and in the assay on SK-MEL-2 melanoma was > 100 µM each time.
On to `COc1ccc(CC2CCc3nc(N)nc(N)c3C2)cc1OC` (configuration not stated), for which the TGI with HCT-116 colon was > 100 µM; in the assay with HCT-15 colon it was 98 µM; with KM12 colon, > 100 µM; in the assay on MALME-3M melanoma, 23.2 µM; in the assay with NCI-H522 lung, 12.6 µM; with PC-3 prostate, > 100 µM. Moreover, the TGI in the assay with RXF 393 renal is 0.81 µM; in the assay with SF-539 CNS, > 40.5 µM; in the assay with SK-MEL-2 melanoma it was > 91.6 µM.
For the compound `C[N+](C)(C)CCCSc1nc2ccccc2[nH]1`, the TGI in the assay with CCRF-CEM leukemia, in the assay with HCT-116 colon, with HCT-15 colon, in the assay on KM12 colon, in the assay with MALME-3M melanoma and in the assay on NCI-H522 lung was > 100 µM in each case. Moreover, the TGI in the assay with PC-3 prostate, in the assay on RXF 393 renal and in the assay with SK-MEL-2 melanoma was > 100 µM each time.
For the compound `CC(C)NC(NC(C)C)=C(S(=O)(=O)C(F)(F)C(F)(F)C(F)(F)C(F)(F)F)S(=O)(=O)C(F)(F)C(F)(F)C(F)(F)C(F)(F)F`, the concentration for total growth inhibition (TGI) in the assay with CCRF-CEM leukemia, in the assay with HCT-116 colon, with HCT-15 colon, in the assay on KM12 colon, in the assay on MALME-3M melanoma and with NCI-H522 lung was > 100 µM throughout. In addition, the concentration for total growth inhibition (TGI) with PC-3 prostate, in the assay on SF-539 CNS and in the assay with SK-MEL-2 melanoma was > 100 µM in each case.
Turning to `CC(C)(C)C(=O)OCOP(=O)(OCOC(=O)C(C)(C)C)OCC1OC(n2ccc(=O)[nH]c2=O)C(N=[N+]=[N-])C1O` (configuration not stated), the concentration for total growth inhibition (TGI) in the assay with CCRF-CEM leukemia stood at 13.3 µM; with HCT-116 colon, 12 µM; with HCT-15 colon, 10.7 µM; with KM12 colon it was 12.8 µM; with MALME-3M melanoma, 1.57 µM; with NCI-H522 lung, 17.5 µM. The results for the concentration for total growth inhibition (TGI) in the assay with PC-3 prostate, with RXF 393 renal and in the assay on SF-539 CNS were 14.1 µM, 7.07 µM and 8.88 µM, respectively.
For `N#Cc1c(=O)n(-c2ccccc2)c(O)c2c(N)n[nH]c12`, the total growth inhibition concentration (TGI) in the assay with HCT-116 colon, with HCT-15 colon, with KM12 colon, in the assay on MALME-3M melanoma, in the assay on NCI-H522 lung and with PC-3 prostate was > 100 µM in each case. For the same compound, the TGI in the assay on RXF 393 renal, in the assay on SF-539 CNS and with SK-MEL-2 melanoma was > 100 µM each time.
`Nc1nc(Cl)c(CO)c(NCC2(CO)CC(CCc3ccccc3)C2)n1` (configuration not stated): the TGI is 69.5 µM in the assay on CCRF-CEM leukemia; 31.9 µM in the assay with HCT-116 colon; > 100 µM in the assay on HCT-15 colon; 14.2 µM with KM12 colon; 42.5 µM in the assay with MALME-3M melanoma; 86.3 µM in the assay on NCI-H522 lung. The TGI with PC-3 prostate was > 100 µM; with RXF 393 renal, 63 µM; in the assay on SF-539 CNS it was > 100 µM.
For the compound `O=C1N=C(SC2OC(CO)C(O)C(O)C2O)S/C1=C\c1ccccc1` (configuration not stated), the TGI in the assay with CCRF-CEM leukemia, in the assay on HCT-15 colon, in the assay with KM12 colon, in the assay on MALME-3M melanoma, in the assay on NCI-H522 lung and with PC-3 prostate was > 100 µM throughout. Also, the TGI with RXF 393 renal, with SF-539 CNS and with SK-MEL-2 melanoma was > 100 µM in each case.
`CC(=N)OC1CC2CCC1(C)C2(C)C` (configuration not stated): the TGI with CCRF-CEM leukemia, in the assay on HCT-116 colon, in the assay with HCT-15 colon, with KM12 colon, with MALME-3M melanoma and with NCI-H522 lung was > 100 µM throughout. Moreover, the concentration for total growth inhibition (TGI) in the assay with PC-3 prostate, in the assay on RXF 393 renal and in the assay with SF-539 CNS was > 100 µM throughout.
`C/C(Cl)=N/OC(=O)Nc1ccc(S(N)(=O)=O)c(C)c1`: the concentration for total growth inhibition (TGI) in the assay on CCRF-CEM leukemia turned out to be 3.99 µM; in the assay on HCT-116 colon, 25 µM; in the assay with HCT-15 colon it was 3.86 µM; in the assay on KM12 colon, 41.2 µM; in the assay with MALME-3M melanoma, 4.5 µM; with NCI-H522 lung, 3.45 µM. The values for the concentration for total growth inhibition (TGI) in the assay on PC-3 prostate, with RXF 393 renal and in the assay on SK-MEL-2 melanoma were 32.3 µM, 31.9 µM and 33.5 µM, respectively.
Turning to `Cc1ccc(/C(Cl)=C/C=C(C#N)C#N)cc1`, the total growth inhibition concentration (TGI) in the assay with CCRF-CEM leukemia is > 100 µM; in the assay with HCT-15 colon, 4.79 µM; in the assay with KM12 colon, 21 µM; in the assay on MALME-3M melanoma it was 16.1 µM; in the assay on NCI-H522 lung, 5.17 µM; in the assay with PC-3 prostate it was > 100 µM. Further, the total growth inhibition concentration (TGI) was 7.66 µM in the assay on RXF 393 renal, 6.37 µM with SF-539 CNS and > 100 µM in the assay with SK-MEL-2 melanoma.
As for `O=c1[nH]nc(-c2ccccc2)n1-c1ccncc1`, the TGI with CCRF-CEM leukemia, in the assay on HCT-116 colon, in the assay on HCT-15 colon, with KM12 colon, in the assay with MALME-3M melanoma and in the assay on NCI-H522 lung was > 100 µM throughout. For the same compound, the TGI with PC-3 prostate, in the assay on RXF 393 renal and in the assay with SF-539 CNS was > 100 µM each time.
For `COC(=O)/C=C(/C=C1/C(C#N)=C(N)N(c2ccc(Cl)cc2)C1(C)/C(=C/C(=O)OC)C(=O)OC)C(=O)OC` (configuration not stated), the TGI in the assay with CCRF-CEM leukemia, in the assay on HCT-116 colon, with HCT-15 colon, in the assay on MALME-3M melanoma, with NCI-H522 lung and with PC-3 prostate was > 100 µM throughout. The TGI in the assay on SF-539 CNS and in the assay with SK-MEL-2 melanoma was > 100 µM in each case.
For the compound `O=C(O)CCC(=O)Nc1ccc2ccccc2c1`, the TGI in the assay on CCRF-CEM leukemia, with HCT-116 colon, in the assay on HCT-15 colon, in the assay on KM12 colon, with MALME-3M melanoma and in the assay on NCI-H522 lung was > 100 µM each time. Further, the concentration for total growth inhibition (TGI) in the assay on PC-3 prostate, with RXF 393 renal and with SK-MEL-2 melanoma was > 100 µM each time.
In the case of `CC(CCC(=O)O)(c1ccc(O)cc1)c1ccc(O)cc1`, the TGI in the assay on HCT-116 colon, in the assay on HCT-15 colon, in the assay on KM12 colon, with MALME-3M melanoma, with NCI-H522 lung and in the assay on PC-3 prostate was > 100 µM throughout. The TGI in the assay on RXF 393 renal and in the assay on SK-MEL-2 melanoma was > 100 µM throughout.
